Patent US20220324815A1, “2-PHENOXY-PYRIMIDINE DERIVATIVES AS HERBICIDAL COMPOUNDS” (SYNGENTA CROP PROTECTION AG, priority 2019, published 2022)

Legend:
Assay type in all cases: in vivo
Conditions in all cases: 250 g/ha unless otherwise stated, evaluated after 13 days, five-point scale
[1] = system: Echinochloa crus-galli (ECHCG); assay: Test 1 glasshouse herbicide test, post-emergence application (Table B1)
Experimental: (§1) Seeds of a variety of test species are sown in standard soil in pots (Lolium perenne (LOLPE), Solanum nigrum (SOLNI), Amaranthus retoflexus (AMARE), Setaria faberi (SETFA), Echinochloa crus-galli (ECHCG) and Ipomoea hederacea (IPOHE)). After cultivation for one day (pre-emergence) or after 8 days cultivation (post-emergence) under controlled conditions in a glasshouse (at 24/16° C., day/night; 14 hours light; 65% humidity), the plants are sprayed with an aqueous spray solution derived from the formulation of the technical active ingredient in acetone/water (50:50) solution containing 0.5% Tween 20 (polyoxyethelyene sorbitan monolaurate, CAS RN 9005-64-5). Compounds are applied at 250 g/ha unless otherwise stated. The test plants are then grown in a glasshouse under controlled conditions in a glasshouse (at 24/16° C., day/night; 14 hours light; 65% humidity) and watered twice daily. After 13 days for pre and post-emergence, the test is evaluated for the percentage damage caused to the plant. The biological activities (% phytotoxicity) are shown in Tables B1 and B2 below using a five-point scale (5=81 to 100%; 4=61 to 80%; 3=41 to 60%; 2=21 to 40%; 1=0 to 20%).

[2] = system: Amaranthus retoflexus (AMARE); assay: as above
Experimental: as §1

Setaria faberi (SETFA) [3] = assay: as above
Experimental: as §1

[4] = system: Ipomoea hederacea (IPOHE); assay: as above
Experimental: as §1

[5] = system: Echinochloa crus-galli (ECHCG); assay: Test 1 glasshouse herbicide test, pre-emergence application (Table B2)
Experimental: as §1

[6] = system: Amaranthus retoflexus (AMARE); assay: as above
Experimental: as §1

Setaria faberi (SETFA) [7] = assay: as above
Experimental: as §1

[8] = system: Ipomoea hederacea (IPOHE); assay: as above
Experimental: as §1

Structure (SMILES)	% phytotoxicity ECHCG, post-emergence application [1]	% phytotoxicity AMARE, post-emergence application [2]	% phytotoxicity SETFA, post-emergence application (Setaria faberi (SETFA) [3])	% phytotoxicity IPOHE, post-emergence application [4]	% phytotoxicity ECHCG, pre-emergence application [5]	% phytotoxicity AMARE, pre-emergence application [6]	% phytotoxicity SETFA, pre-emergence application (Setaria faberi (SETFA) [7])	% phytotoxicity IPOHE, pre-emergence application [8]
CCC(C)Sc1ccccc1Oc1ncc(Cl)cn1 (racemic) [Compound A65]	4 (4=61 to 80%)	1 (1=0 to 20%)	3 (3=41 to 60%)	3 (3=41 to 60%)	4 (4=61 to 80%)	3 (3=41 to 60%)	4 (4=61 to 80%)	1 (1=0 to 20%)
CCCC(C)CSc1ccccc1Oc1ncc(Cl)cn1 (racemic) [Compound A69]	4 (4=61 to 80%)	4 (4=61 to 80%)	2 (2=21 to 40%)	1 (1=0 to 20%)	3 (3=41 to 60%)	1 (1=0 to 20%)	4 (4=61 to 80%)	1 (1=0 to 20%)
CCCC(C)CS(=O)(=O)c1ccccc1Oc1ncc(Cl)cn1 (racemic) [Compound A74]	1 (1=0 to 20%)	3 (3=41 to 60%)	1 (1=0 to 20%)	1 (1=0 to 20%)	1 (1=0 to 20%)	1 (1=0 to 20%)	1 (1=0 to 20%)	1 (1=0 to 20%)
CCCCS(=O)(=O)c1ccccc1Oc1ncc(Cl)cn1 [Compound A20]	2 (2=21 to 40%)	2 (2=21 to 40%)	3 (3=41 to 60%)	1 (1=0 to 20%)	4 (4=61 to 80%)	3 (3=41 to 60%)	4 (4=61 to 80%)	1 (1=0 to 20%)
CCCCSc1ccccc1Oc1ncc(Cl)cn1 [Compound A21]	4 (4=61 to 80%)	4 (4=61 to 80%)	4 (4=61 to 80%)	3 (3=41 to 60%)	5 (5=81 to 100%)	4 (4=61 to 80%)	5 (5=81 to 100%)	2 (2=21 to 40%)
CCCC[S+]([O-])c1ccccc1Oc1ncc(Cl)cn1 (stereo not drawn) [Compound A22]	4 (4=61 to 80%)	3 (3=41 to 60%)	4 (4=61 to 80%)	2 (2=21 to 40%)	5 (5=81 to 100%)	4 (4=61 to 80%)	5 (5=81 to 100%)	5 (5=81 to 100%)
CCCC(C)Sc1ccccc1Oc1ncc(Cl)cn1 (stereo not drawn) [Compound A33]	2 (2=21 to 40%)	3 (3=41 to 60%)	2 (2=21 to 40%)	1 (1=0 to 20%)	1 (1=0 to 20%)	1 (1=0 to 20%)	3 (3=41 to 60%)	1 (1=0 to 20%)
N#Cc1ccc(CSc2ccccc2Oc2ncc(Cl)cn2)cc1 [Compound A36]	3 (3=41 to 60%)	5 (5=81 to 100%)	4 (4=61 to 80%)	3 (3=41 to 60%)	4 (4=61 to 80%)	5 (5=81 to 100%)	5 (5=81 to 100%)	2 (2=21 to 40%)
Cl/C=C/CSc1ccccc1Oc1ncc(Cl)cn1 [Compound A37]	2 (2=21 to 40%)	4 (4=61 to 80%)	2 (2=21 to 40%)	2 (2=21 to 40%)	4 (4=61 to 80%)	4 (4=61 to 80%)	3 (3=41 to 60%)	1 (1=0 to 20%)
O=S(=O)(C/C=C/Cl)c1ccccc1Oc1ncc(Cl)cn1 [Compound A38]	1 (1=0 to 20%)	2 (2=21 to 40%)	1 (1=0 to 20%)	3 (3=41 to 60%)	1 (1=0 to 20%)	2 (2=21 to 40%)	1 (1=0 to 20%)	1 (1=0 to 20%)
N#Cc1cccc(Oc2ncc(Cl)cn2)c1SCCCCC(F)(F)F [Compound A39]	5 (5=81 to 100%)	5 (5=81 to 100%)	5 (5=81 to 100%)	3 (3=41 to 60%)	5 (5=81 to 100%)	5 (5=81 to 100%)	5 (5=81 to 100%)	2 (2=21 to 40%)
N#Cc1cccc(Oc2ncc(Cl)cn2)c1SCCCCCC(F)(F)F [Compound A40]	4 (4=61 to 80%)	5 (5=81 to 100%)	4 (4=61 to 80%)	3 (3=41 to 60%)	4 (4=61 to 80%)	5 (5=81 to 100%)	5 (5=81 to 100%)	1 (1=0 to 20%)
COCCSc1ccccc1Oc1ncc(Cl)cn1 [Compound A41]	3 (3=41 to 60%)	3 (3=41 to 60%)	2 (2=21 to 40%)	3 (3=41 to 60%)	2 (2=21 to 40%)	1 (1=0 to 20%)	2 (2=21 to 40%)	2 (2=21 to 40%)
COCCS(=O)(=O)c1ccccc1Oc1ncc(Cl)cn1 [Compound A42]	1 (1=0 to 20%)	2 (2=21 to 40%)	1 (1=0 to 20%)	1 (1=0 to 20%)	1 (1=0 to 20%)	1 (1=0 to 20%)	1 (1=0 to 20%)	1 (1=0 to 20%)
CCCCCS(=O)(=O)c1ccccc1Oc1ncc(Cl)cn1 [Compound A43]	2 (2=21 to 40%)	3 (3=41 to 60%)	2 (2=21 to 40%)	1 (1=0 to 20%)	4 (4=61 to 80%)	5 (5=81 to 100%)	4 (4=61 to 80%)	1 (1=0 to 20%)
CCCCCSc1ccccc1Oc1ncc(Cl)cn1 [Compound A44]	4 (4=61 to 80%)	5 (5=81 to 100%)	2 (2=21 to 40%)	1 (1=0 to 20%)	5 (5=81 to 100%)	5 (5=81 to 100%)	5 (5=81 to 100%)	1 (1=0 to 20%)
O=S(=O)(CC(F)(F)F)c1ccccc1Oc1ncc(Cl)cn1 [Compound A78]					1 (1=0 to 20%)	3 (3=41 to 60%)	1 (1=0 to 20%)	1 (1=0 to 20%)
